Results from publication PMC4321988, “Engineering of Helicobacter pylori L-Asparaginase: Characterization of Two Functionally Distinct Groups of Mutants” (PLoS ONE, 2015).
Read-outs that look alike come from different tables or passages of the source.

What was measured:
[1] = target: T1, HpASNase (Helicobacter pylori CCUG 17874 type II L-asparaginase) (Helicobacter pylori, UniProt O25424); experiment: glutamate dehydrogenase-coupled NADH assay, […] nm; type: biochemical; details: 50 mM HEPES pH 7.5, 37°C
T1 construct: gene ansA; recombinant, E. coli BL21(DE3) pLysS, plasmid pDC1 (pET101 D-TOPO derivative), His-tag kept (given as N-terminal), 37 kDa band, tetramer
T1 sequence (O25424 whole entry): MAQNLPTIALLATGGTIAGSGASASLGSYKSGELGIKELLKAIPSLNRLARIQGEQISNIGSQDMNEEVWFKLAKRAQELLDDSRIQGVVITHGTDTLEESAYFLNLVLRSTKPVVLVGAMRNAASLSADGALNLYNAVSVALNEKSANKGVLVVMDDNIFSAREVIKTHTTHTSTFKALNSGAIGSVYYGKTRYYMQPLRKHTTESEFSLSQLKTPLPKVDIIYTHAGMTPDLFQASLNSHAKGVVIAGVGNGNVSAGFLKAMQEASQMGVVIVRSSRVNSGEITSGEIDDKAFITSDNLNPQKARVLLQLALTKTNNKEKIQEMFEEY

[2] = target: Helicobacter pylori CCUG 17874 type II L-asparaginase T16D mutant (Helicobacter pylori CCUG 17874); experiment: SEC; analytical gel filtration of the purified mutant; data not shown; conditions not given
[3] = target: Helicobacter pylori CCUG 17874 type II L-asparaginase T95E mutant (Helicobacter pylori CCUG 17874); experiment: as above

NC(=O)C[C@H](N)C(=O)O [L-asparagine]
Km ([1]; read-out: L-asparagine / S0.5, nH 1.0): 0.29 ± 0.03 mM

NC(=O)CC[C@H](N)C(=O)O [L-glutamine]
Km ([1]; read-out: L-glutamine / S0.5, nH 2.0): 46.4 ± 4.02 mM

Helicobacter pylori CCUG 17874 type II L-asparaginase T16D mutant (enzyme)
stoichiometry N [2]: 4

Helicobacter pylori CCUG 17874 type II L-asparaginase T95E mutant (enzyme)
stoichiometry N [3]: 4
